What all share (assay type): cell-based
The subject of one series is Klebsiella. Nature of the series: MIC, serial dilution method. Conditions: Klebsiella aeruginosa (so in the source); serial dilution 512-0.5 μg/mL, Luria-Bertani, 37°C, 16 to 18 hours; mean of three independent experiments in duplicate. The procedure:
(§1) Two Gram-positive bacteria, 3 Gram-negative bacteria, and 2 fungi were selected to measure antibacterial activity of peptides. The strains were provided by Department of Microbiology in China Pharmaceutical University and were stored at 4°C until use.
Antimicrobial activity was evaluated using an inhibition zone assay or determination of the minimal inhibitory concentration (MIC) value with minor modifications as described previously: • Inhibition zone assay: agar plates were seeded with strains (about 10^6 cells in 10 mL of 1% agar medium). Wells (3 mm in diameter) were punched out and a 5 μL peptide sample dissolved in water was loaded. Controls were loaded with water. After incubation at 37°C overnight, the diameter of the inhibition zone was determined. • Determination of the MIC value: MICs were determined using a standard serial dilution method in appropriate medium for each bacterial strain listed in Table 3. In brief, 1 mL of different peptides dilution solutions was poured into a series of sterile plates, and then 9 mL appropriate medium that was preincubated at 37°C was added into a plate and was mixed gently to reach various concentrations (512, 256, 128, 64, 32, 16, 8, 4, 2, 1, and 0.5 μg/mL). Bacteria were added to the 96-well plates. The amount of bacteria for each spot is approximately 10^4 to 10^5 CFU/mL. After incubating the inoculated plate at 37°C for 16 to 18 hours, MICs were determined as the lowest peptide concentration that inhibited bacterial growth. […]

In the next series the test system is Aspergillus niger. The procedure: as §1
(§2) Antimicrobial activity was evaluated using an inhibition zone assay or determination of the minimal inhibitory concentration (MIC) value with minor modifications as described previously: • Inhibition zone assay: agar plates were seeded with strains (about 10^6 cells in 10 mL of 1% agar medium). Wells (3 mm in diameter) were punched out and a 5 μL peptide sample dissolved in water was loaded. Controls were loaded with water. After incubation at 37°C overnight, the diameter of the inhibition zone was determined. • Determination of the MIC value: MICs were determined using a standard serial dilution method in appropriate medium for each bacterial strain listed in Table 3. In brief, 1 mL of different peptides dilution solutions was poured into a series of sterile plates, and then 9 mL appropriate medium that was preincubated at 37°C was added into a plate and was mixed gently to reach various concentrations (512, 256, 128, 64, 32, 16, 8, 4, 2, 1, and 0.5 μg/mL). Bacteria were added to the 96-well plates. The amount of bacteria for each spot is approximately 10^4 to 10^5 CFU/mL. After incubating the inoculated plate at 37°C for 16 to 18 hours, MICs were determined as the lowest peptide concentration that inhibited bacterial growth. All MICs were determined in two independent experiments performed in duplicate.

Series [1] relates to Staphylococcus epidermidis. The procedure:
as §1, §2

A further series has as its system Pseudomonas aeruginosa. The procedure:
as §1, §2

The subject of the next series is Escherichia coli. The procedure: as §1, §2
A further series deals with Staphylococcus aureus. The procedure: as §1, §2
The test system of the next series is human red blood cells. The series is described as follows: Hemolytic assay. The note with it: human RBC in PBS pH 7.4, 37°C, 1 h, absorbance 415 nm. The procedure: Hemolytic activity was determined by the procedure of Yoshida et al. with slight modifications. Fresh human blood (1 mL) was centrifuged at 1000 ×g for 5 min and the precipitates were collected and then washed 3 times with phosphate buffered saline (PBS) (pH 7.4). Precipitates were resuspended in 4-fold volumes of PBS. Then, 995 μL of PBS solution containing serial diluted peptides was added to a human erythrocyte solution of 5 μL. The resulting solution was incubated at 37°C for 1 h and was centrifuged at 1000 ×g for 5 min. The supernatant was diluted 5-fold with PBS and was monitored at 415 nm using a UV spectrophotometer. Zero hemolysis (blank) and 100% hemolysis were determined in PBS and 1% Triton X-100, respectively.

The values that follow come from article PMC4673326, “Design and Synthesis of a Novel Cationic Peptide with Potent and Broad-Spectrum Antimicrobial Activity” (BioMed Research International, 2015).

Ends that are not written are not given here.

On to KWKLFKKIWGKPV-NH2 [KPV-13], for which the MIC in the series with Klebsiella was >512 µg/mL; with Aspergillus niger, >512 µg/mL; in series [1] it was 32 µg/mL; with Pseudomonas aeruginosa it was >512 µg/mL; in the series on Escherichia coli, 512 µg/mL; against Staphylococcus aureus, >512 µg/mL.

On to Melittin [reference compound], for which the “concentration causing the lysis of whole erythrocytes” value with human red blood cells is recorded as “below 40 μg/mL”.

As for RRWWRFPPPRFPPRFPPP-NH2 [RFPP-18], the minimal inhibitory concentration (MIC) in the series on Klebsiella is given as >512 µg/mL; against Aspergillus niger, >512 µg/mL; in series [1] it was 512 µg/mL; against Pseudomonas aeruginosa, 256 µg/mL; with Escherichia coli, 128 µg/mL; in the series with Staphylococcus aureus, >512 µg/mL.

Take KWKKPKLLKKLLK [KWKK-13]: the MIC against Klebsiella was >512 µg/mL; against Aspergillus niger, >512 µg/mL; in series [1], >512 µg/mL; in the series on Pseudomonas aeruginosa, >512 µg/mL; in the series with Escherichia coli, 256 µg/mL; in the series with Staphylococcus aureus, >512 µg/mL.

Regarding RRWWRFPRFFRRFFR-NH2 [RFFR-15], the MIC with Klebsiella is >512 µg/mL; in the series on Aspergillus niger, >512 µg/mL; in series [1] it was 128 µg/mL; with Pseudomonas aeruginosa, >512 µg/mL; in the series with Escherichia coli, 256 µg/mL; against Staphylococcus aureus, 64 µg/mL.

With KWKYPKLLKKLLK [KW-13], the hemolysis in the series with human red blood cells (100% = 1% Triton X-100, tested at 10, 40, 160 and 640 μg/mL, value holds even at 640 μg/mL) is listed as < 1%. For the same substance, the MIC is recorded as 128 µg/mL with Klebsiella; 256 µg/mL in the series with Aspergillus niger; 4 µg/mL in series [1]; 128 µg/mL with Pseudomonas aeruginosa; 64 µg/mL against Escherichia coli; 16 µg/mL in the series on Staphylococcus aureus.

On to KFRWGKPV-NH2 [KPV-8], for which the MIC (against Klebsiella; with Aspergillus niger; in series [1]; against Pseudomonas aeruginosa; against Escherichia coli; with Staphylococcus aureus) was >512 µg/mL in each case.
